The text below walks through data of patent publication US5775329A, “Method and compounds for diagnosing coronary artery disease” (Gensia, Inc., priority 1995, dated 1998).

One experiment has as its target T1, β2-adrenoreceptor (Cavia porcellus, UniProt Q8K4Z4).
T1 construct: the trachea was gently excised and placed in ice-cold aerated Krebs Ringer solution; from tissue; host or cells: guinea pig tracheal rings
Nature of the experiment: In vitro bioassay for β2-adrenergic activity (relaxation of precontracted tracheal rings). In kind it is biochemical. As to conditions: guinea pig tracheal rings precontracted with carbachol, 37° C., pH=7.4, read-out: β2 (trachea). The protocol: (§1) In Vitro Bioassays for β1 -, β2 - and α-Adrenoreceptor Activity
(§2) Functional evaluation of β1 -, β2 - and α-adrenoreceptor activity was performed using in vitro preparations of guinea pig atria, guinea pig trachea, and rabbit aorta, respectively (Young, et. al, Drug Dev. Res. 1994, 32, 19-28).
For the tracheal assay of β2 -adrenergic activity, male Hartley guinea pigs (350-500 g) were sacrificed by carbon dioxide inhalation and the trachea was gently excised and placed in ice-cold aerated Krebs Ringer solution. β2 -adrenergic activity was assessed as the relaxation of rings following precontraction with carbachol. The trachea were cut into transverse rings containing two cartilage segments, and sutures were tied onto the cartilage on either side of the band of smooth muscle of each ring. The sutures were used to mount the individual rings in a 2.5-ml organ bath and to measure tension with an isometric force transducer. The water-jacketed organ baths maintained the preparation at 37° C. and were filled with Krebs Ringer solution aerated with 95% O2 and 5% CO2. The tracheal rings were equilibrated for 1 h following the application of 0.5 g resting tension. In some cases, equilibrated rings were then treated with the α2 -antagonist rauwolscine ([…]) and the β1 -antagonist atenolol ([…]) prior to precontraction with carbachol ([…]). Precontracted rings used as controls received treatments of saline only. Concentration-response curves were obtained by cumulative addition of drug to the organ bath, the concentration being increased only after the maximal relaxation to the preceding concentration was attained. After the final response was attained, isoproterenol ([…]) was added to assess maximal response for each preparation.
(§3) In all experiments, tension was measured by isometric force transducers (52-9529, Harvard Apparatus, Natick, Mass.) coupled to an ink-writing recorder (Gould, Cleveland Ohio). The Krebs Ringer solution contained the following ingredients (mM): NaCl (118.1), NaHCO3 (25.0), D-glucose (11.1), KH2 PO4 (1.2), KCl (4.8), MgSO4 (1.2), CaCl2 (2.5), pH=7.4.

Experiment [1] has as its system heart rate (chronotropic response). Nature of the experiment: Pharmacodynamics in conscious dogs during i.v. administration (chronotropic response and offset). In kind it is in vivo, dog. As to conditions: Example 13. Here is the method:
[…] The T50 s were measured from end of infusion.
Pharmacodynamics in conscious dogs during i.v. administration
Dogs were trained to lie quietly on a table. Novel catecholamine compounds were administered via a venous catheter acutely placed in a leg vein. […] Heart rate was recorded by computer from ECG limb leads at 5 second intervals throughout the experiment. […]

The target in the next experiment is α-adrenoreceptor. In words: In vitro bioassay for α-adrenergic activity (contraction of aortic rings). In kind it is biochemical. As to conditions: rabbit aortic rings, propranolol pretreated, 37° C., pH=7.4, read-out: α (aorta). Here is the method:
as §1, §2
For evaluation of α-adrenergic activity, male New Zealand white rabbits (2.5 kg) (Simunek Rabbitry, Vista, Calif.) were sacrificed by carbon dioxide inhalation and the thoracic aorta was quickly excised and placed in Krebs Ringer solution. The aorta was cut into 3-mm rings which were subsequently suspended on hooks in organ baths. The 2.5-ml water-jacketed baths were maintained at 37° C. and filled with Krebs Ringer solution aerated with 95% O2 and 5% CO2. The vascular rings were equilibrated for 1 h following the application of a resting tension of 4 g, during which time the buffer was changed at 15-min intervals. All rings were pretreated with propranolol ([…]) 10 min prior to addition of test compounds. Concentration-response curves were obtained by cumulative addition of compound to the organ bath, the concentration being increased only after maximal response to the preceding concentration was attained. After the final response was attained for each test drug, norepinephrine ([…]) was added to assess maximal contraction. Responses are expressed as a percent of the maximal contraction by norepinephrine.
as §3

Another experiment has as its target T2, β1-adrenoreceptor (Cavia porcellus, UniProt H0W3H1).
T2 construct: the hearts were excised and placed in ice-cold oxygenated Krebs Ringer buffer; tissue Charles River Laboratories (animals); host or cells: guinea pig atria (right and left, paired)
Nature of the experiment: In vitro bioassay for β1-adrenergic activity (atrial rate). In kind it is biochemical. As to conditions: guinea pig atria, 37° C., pH=7.4, approximately four atrial preparations per compound. Here is the method: as §1, §2
For the atrial assay of β1 -adrenergic activity, male Hartley guinea pigs (350-500 g; Charles River Laboratories, Wilmington, Mass.) were sacrificed by decapitation and the hearts were excised and placed in ice-cold oxygenated Krebs Ringer buffer. The atria were separated from the ventricles, leaving the right and left atria attached as a pair. A suture was placed at the apex of each atrial appendage for securing the tissue within the organ bath. The water-jacketed 25-ml organ baths were maintained at 37° C. and filled with Krebs Ringer solution aerated with 95% O2 and 5% CO2. The atrial pairs were equilibrated for at least 20 min after application of 1 g resting tension. β1 -adrenergic activity was assessed using atrial rate (beats per min) and amplitude of contraction (g tension) which were monitored at 1 and 5 min after dosing. Concentration-response curves (10^-11 -10^-4 M) were obtained by cumulative addition of drug to the bath. Following the completion of the dose response curves, isoproterenol was added to assess maximal response of each atrial preparation. EC50 values were calculated from the rate results of approximately four atrial preparations per compound.
as §3

A further experiment deals with heart rate. Nature of the experiment: Pharmacodynamics in conscious dogs during transdermal iontophoretic administration. In kind it is in vivo, dog. As to conditions: iontophoresis 0.25 mA, 10 min; concentration (mM): isoproterenol 2.5, arbutamine 20, Ex 4 2, Ex 1 3, Ex 11 12, Ex 9 8, Ex 6 8. Here is the method: Pharmacodynamics in conscious dogs during transdermal iontophoretic administration
Dogs were trained to lie quietly on a table. Heart rate was monitored by ECG limb leads. Novel catecholamines were administered from a gel-filled electrode placed on the surface of the skin. A second electrode was placed on the skin to complete the electrical circuit. All compounds were delivered using a current of 0.25 mA for a period of 10 minutes. Heart rate was monitored by the ECG, and the T50 of the compound was measured as the time after termination of current required for heart rate to return 50% toward baseline rate. A "delay" time was also measured as the time required for heart rate to begin to fall, following termination of current.

T1 sequence (Q8K4Z4 whole entry): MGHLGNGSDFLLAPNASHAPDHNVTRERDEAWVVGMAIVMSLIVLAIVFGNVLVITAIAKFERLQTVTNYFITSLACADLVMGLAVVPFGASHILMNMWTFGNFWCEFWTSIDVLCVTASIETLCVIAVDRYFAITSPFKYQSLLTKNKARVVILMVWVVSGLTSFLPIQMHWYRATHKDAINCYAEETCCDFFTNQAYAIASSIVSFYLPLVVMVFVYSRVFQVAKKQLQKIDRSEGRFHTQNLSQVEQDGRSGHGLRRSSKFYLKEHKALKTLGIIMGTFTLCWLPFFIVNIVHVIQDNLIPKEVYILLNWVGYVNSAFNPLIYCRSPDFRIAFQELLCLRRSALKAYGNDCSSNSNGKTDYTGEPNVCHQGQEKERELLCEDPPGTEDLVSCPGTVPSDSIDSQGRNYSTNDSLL
T2 sequence (H0W3H1 1-470): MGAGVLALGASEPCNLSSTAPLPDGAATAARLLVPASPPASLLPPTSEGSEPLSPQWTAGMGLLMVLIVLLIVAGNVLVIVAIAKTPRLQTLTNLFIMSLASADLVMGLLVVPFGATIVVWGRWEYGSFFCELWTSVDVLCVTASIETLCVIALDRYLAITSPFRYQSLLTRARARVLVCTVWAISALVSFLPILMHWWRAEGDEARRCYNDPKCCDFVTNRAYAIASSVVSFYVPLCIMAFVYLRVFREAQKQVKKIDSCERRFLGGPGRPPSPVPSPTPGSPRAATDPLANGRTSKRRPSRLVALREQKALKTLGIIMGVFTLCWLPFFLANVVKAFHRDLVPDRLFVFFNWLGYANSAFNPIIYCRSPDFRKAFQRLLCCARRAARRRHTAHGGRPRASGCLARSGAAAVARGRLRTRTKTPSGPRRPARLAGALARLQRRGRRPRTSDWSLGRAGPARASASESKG

For `COCCC(C)NC[C@H](O)c1ccc(O)c(O)c1` (stereo partly drawn) [Example 4, 1-(R)-(3,4-dihydroxyphenyl)-2-(1-methyl-3-methoxypropylamino)ethanol], the EC50 is 9.9 ± 1.3 nM on β2-adrenoreceptor, greater than 100000 nM at α-adrenoreceptor and 1.1 ± 0.2 nM on β1-adrenoreceptor. Further, the “Δ Heart Rate” value in experiment [1] (i.v. stepwise ascending doses up to 100 ng/kg/min) is 98 ± 8; with heart rate, 79 ± 8 beats/min. The molecule also showed a T50 in experiment [1] (i.v., from termination of infusion (100 ng/kg/min) to 50% fall in heart rate towards baseline) of 5.0 ± 0.7 min. Further, the “Delay (time required for heart rate to begin to fall following termination of current)” value in the experiment on heart rate was 0.3 ± 0.1 min. Further, in the experiment with heart rate, the “T50 (time after termination of current for heart rate to return 50% toward baseline)” value came out at 9.1 ± 0.8 min.
